Assay results from PubChem BioAssay (NCI).
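A five-concentration, 48-hour dose response in 96-well plates underlies each endpoint, interpolated linearly between surrounding concentrations. TGI: total growth inhibition.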

Columns and labels:
Assay in all cases: NCI tumour cell line growth inhibition, 48 h
786-0 renal = tested on: 786-0 renal
A498 renal = tested on: A498 renal
A549 NSCLC = tested on: A549 NSCLC
ACHN renal = tested on: ACHN renal
CAKI-1 renal = tested on: CAKI-1 renal
CCRF-CEM leukemia = tested on: CCRF-CEM leukemia
COLO 205 colon = tested on: COLO 205 colon
EKVX NSCLC = tested on: EKVX NSCLC
HCC-2998 colon = tested on: HCC-2998 colon
HCT-116 colon = tested on: HCT-116 colon
HCT-15 colon = tested on: HCT-15 colon
HOP-62 NSCLC = tested on: HOP-62 NSCLC
HOP-92 NSCLC = tested on: HOP-92 NSCLC
HT29 colon = tested on: HT29 colon
IGROV1 ovarian = tested on: IGROV1 ovarian
K-562 leukemia = tested on: K-562 leukemia
KM12 colon = tested on: KM12 colon
KM20L2 colon = tested on: KM20L2 colon
LOX IMVI melanoma = tested on: LOX IMVI melanoma
M14 melanoma = tested on: M14 melanoma
MALME-3M melanoma = tested on: MALME-3M melanoma
MOLT-4 leukemia = tested on: MOLT-4 leukemia
NCI-H226 lung = tested on: NCI-H226 lung
NCI-H23 lung = tested on: NCI-H23 lung
NCI-H460 lung = tested on: NCI-H460 lung
NCI-H522 lung = tested on: NCI-H522 lung
OVCAR-3 ovarian = tested on: OVCAR-3 ovarian
OVCAR-4 ovarian = tested on: OVCAR-4 ovarian
OVCAR-5 ovarian = tested on: OVCAR-5 ovarian
OVCAR-8 ovarian = tested on: OVCAR-8 ovarian
RPMI-8226 leukemia = tested on: RPMI-8226 leukemia
RXF 393 renal = tested on: RXF 393 renal
SF-268 CNS = tested on: SF-268 CNS
SF-295 CNS = tested on: SF-295 CNS
SF-539 CNS = tested on: SF-539 CNS
SK-MEL-2 melanoma = tested on: SK-MEL-2 melanoma
SK-MEL-28 melanoma = tested on: SK-MEL-28 melanoma
SK-MEL-5 melanoma = tested on: SK-MEL-5 melanoma
SK-OV-3 ovarian = tested on: SK-OV-3 ovarian
SN12C renal = tested on: SN12C renal
SNB-19 CNS = tested on: SNB-19 CNS
SNB-75 CNS = tested on: SNB-75 CNS
SR leukemia = tested on: SR leukemia
SW-620 colon = tested on: SW-620 colon
TK-10 renal = tested on: TK-10 renal
U251 CNS = tested on: U251 CNS
UACC-257 melanoma = tested on: UACC-257 melanoma
UACC-62 melanoma = tested on: UACC-62 melanoma
UO-31 renal = tested on: UO-31 renal
BT-549 breast = tested on: BT-549 breast
DU-145 prostate = tested on: DU-145 prostate
HS 578T breast = tested on: HS 578T breast
MCF7 breast = tested on: MCF7 breast
MDA-MB-231 breast = tested on: MDA-MB-231 breast
MDA-MB-435 = tested on: MDA-MB-435
MDA-N = tested on: MDA-N
NCI/ADR-RES ovarian = tested on: NCI/ADR-RES ovarian
PC-3 prostate = tested on: PC-3 prostate
T-47D breast = tested on: T-47D breast
HL-60(TB) leukemia = tested on: HL-60(TB) leukemia

## COc1cccc(/C=N/[N-]C(N)=O)c1[O-].[OH3+].[Pd+2]
786-0 renal
  TGI: > 100 µM
A498 renal
  TGI: > 100 µM
A549 NSCLC
  TGI: > 100 µM
ACHN renal
  TGI: > 100 µM
CAKI-1 renal
  TGI: > 100 µM
CCRF-CEM leukemia
  TGI: > 100 µM
COLO 205 colon
  TGI: > 100 µM
EKVX NSCLC
  TGI: > 100 µM
HCC-2998 colon
  TGI: > 100 µM
HCT-116 colon
  TGI: > 100 µM
HCT-15 colon
  TGI: > 100 µM
HOP-62 NSCLC
  TGI: > 100 µM
HOP-92 NSCLC
  TGI: > 100 µM
HT29 colon
  TGI: > 100 µM
IGROV1 ovarian
  TGI: > 100 µM
K-562 leukemia
  TGI: > 100 µM
KM12 colon
  TGI: > 100 µM
KM20L2 colon
  TGI: > 100 µM
LOX IMVI melanoma
  TGI: > 100 µM
M14 melanoma
  TGI: > 100 µM
MALME-3M melanoma
  TGI: > 100 µM
MOLT-4 leukemia
  TGI: > 100 µM
NCI-H226 lung
  TGI: > 100 µM
NCI-H23 lung
  TGI: > 100 µM
NCI-H460 lung
  TGI: > 100 µM
NCI-H522 lung
  TGI: > 100 µM
OVCAR-3 ovarian
  TGI: > 100 µM
OVCAR-4 ovarian
  TGI: > 100 µM
OVCAR-5 ovarian
  TGI: > 100 µM
OVCAR-8 ovarian
  TGI: > 100 µM
RPMI-8226 leukemia
  TGI: > 100 µM
RXF 393 renal
  TGI: > 100 µM
SF-268 CNS
  TGI: > 100 µM
SF-295 CNS
  TGI: > 100 µM
SF-539 CNS
  TGI: > 100 µM
SK-MEL-2 melanoma
  TGI: > 100 µM
SK-MEL-28 melanoma
  TGI: > 100 µM
SK-MEL-5 melanoma
  TGI: > 100 µM
SK-OV-3 ovarian
  TGI: > 100 µM
SN12C renal
  TGI: > 100 µM
SNB-19 CNS
  TGI: > 100 µM
SNB-75 CNS
  TGI: > 100 µM
SR leukemia
  TGI: > 100 µM
SW-620 colon
  TGI: > 100 µM
TK-10 renal
  TGI: > 100 µM
U251 CNS
  TGI: > 100 µM
UACC-257 melanoma
  TGI: > 100 µM
UACC-62 melanoma
  TGI: > 100 µM
UO-31 renal
  TGI: > 100 µM

## CC(=O)Oc1ccc(/C=C/C(=O)NCCOC(=O)/C=C/c2ccc(OC(C)=O)c(OC(C)=O)c2)cc1OC(C)=O
786-0 renal
  TGI: 84.9 µM
A498 renal
  TGI: > 100 µM
A549 NSCLC
  TGI: > 100 µM
ACHN renal
  TGI: > 100 µM
BT-549 breast
  TGI: > 100 µM
CAKI-1 renal
  TGI: > 100 µM
COLO 205 colon
  TGI: > 100 µM
DU-145 prostate
  TGI: > 100 µM
EKVX NSCLC
  TGI: > 100 µM
HCC-2998 colon
  TGI: > 100 µM
HCT-116 colon
  TGI: 39.2 µM
HCT-15 colon
  TGI: > 100 µM
HOP-62 NSCLC
  TGI: > 100 µM
HOP-92 NSCLC
  TGI: 95.6 µM
HS 578T breast
  TGI: > 100 µM
HT29 colon
  TGI: > 100 µM
IGROV1 ovarian
  TGI: > 100 µM
K-562 leukemia
  TGI: > 100 µM
KM12 colon
  TGI: > 100 µM
LOX IMVI melanoma
  TGI: 38.6 µM
M14 melanoma
  TGI: 74.5 µM
MALME-3M melanoma
  TGI: > 100 µM
MCF7 breast
  TGI: > 100 µM
MDA-MB-231 breast
  TGI: > 100 µM
MDA-MB-435
  TGI: > 100 µM
MDA-N
  TGI: > 100 µM
MOLT-4 leukemia
  TGI: > 100 µM
NCI-H23 lung
  TGI: 79.4 µM
NCI-H460 lung
  TGI: > 100 µM
NCI-H522 lung
  TGI: 29.6 µM
NCI/ADR-RES ovarian
  TGI: > 100 µM
OVCAR-3 ovarian
  TGI: 42 µM
OVCAR-4 ovarian
  TGI: > 100 µM
OVCAR-5 ovarian
  TGI: 97.6 µM
OVCAR-8 ovarian
  TGI: > 100 µM
PC-3 prostate
  TGI: > 100 µM
RPMI-8226 leukemia
  TGI: 90.5 µM
RXF 393 renal
  TGI: 47.4 µM
SF-268 CNS
  TGI: > 100 µM
SF-295 CNS
  TGI: 76.7 µM
SF-539 CNS
  TGI: > 100 µM
SK-MEL-2 melanoma
  TGI: > 100 µM
SK-MEL-28 melanoma
  TGI: > 100 µM
SK-MEL-5 melanoma
  TGI: 47.1 µM
SK-OV-3 ovarian
  TGI: > 100 µM
SN12C renal
  TGI: 68.5 µM
SNB-19 CNS
  TGI: > 100 µM
SNB-75 CNS
  TGI: 79.6 µM
SR leukemia
  TGI: > 100 µM
SW-620 colon
  TGI: 61.8 µM
T-47D breast
  TGI: 98.9 µM
TK-10 renal
  TGI: > 100 µM
U251 CNS
  TGI: > 100 µM
UACC-257 melanoma
  TGI: > 100 µM
UACC-62 melanoma
  TGI: 49.1 µM
UO-31 renal
  TGI: 83.3 µM

## O=[N+]([O-])c1ccc(/C=C\c2ccc3c(c2)OCO3)c([N+](=O)[O-])c1
786-0 renal
  TGI: > 100 µM
A498 renal
  TGI: 46.7 µM
A549 NSCLC
  TGI: 73.8 µM
ACHN renal
  TGI: 33.6 µM
BT-549 breast
  TGI: 34.2 µM
CAKI-1 renal
  TGI: 92 µM
CCRF-CEM leukemia
  TGI: 33.7 µM
COLO 205 colon
  TGI: 32.3 µM
DU-145 prostate
  TGI: 47 µM
EKVX NSCLC
  TGI: 28.1 µM
HCC-2998 colon
  TGI: 27.6 µM
HCT-116 colon
  TGI: 21.4 µM
HCT-15 colon
  TGI: 37.3 µM
HL-60(TB) leukemia
  TGI: 39 µM
HOP-62 NSCLC
  TGI: 69 µM
HOP-92 NSCLC
  TGI: 53.5 µM
HS 578T breast
  TGI: 38.5 µM
HT29 colon
  TGI: 40.3 µM
IGROV1 ovarian
  TGI: 24.7 µM
K-562 leukemia
  TGI: 50.2 µM
KM12 colon
  TGI: 54 µM
LOX IMVI melanoma
  TGI: 27 µM
M14 melanoma
  TGI: 31.1 µM
MALME-3M melanoma
  TGI: 46.5 µM
MCF7 breast
  TGI: 8.58 µM
MDA-MB-231 breast
  TGI: 33.2 µM
MDA-MB-435
  TGI: 22.1 µM
MDA-N
  TGI: 22.4 µM
MOLT-4 leukemia
  TGI: 33.8 µM
NCI-H23 lung
  TGI: 48.6 µM
NCI-H460 lung
  TGI: 54.5 µM
NCI-H522 lung
  TGI: 25.6 µM
NCI/ADR-RES ovarian
  TGI: 81.6 µM
OVCAR-3 ovarian
  TGI: 43.1 µM
OVCAR-5 ovarian
  TGI: 35.5 µM
OVCAR-8 ovarian
  TGI: 45.5 µM
PC-3 prostate
  TGI: 63.4 µM
RPMI-8226 leukemia
  TGI: 19.2 µM
RXF 393 renal
  TGI: 7.76 µM
SF-268 CNS
  TGI: 58.5 µM
SF-295 CNS
  TGI: 59.1 µM
SF-539 CNS
  TGI: 39.1 µM
SK-MEL-2 melanoma
  TGI: 35.3 µM
SK-MEL-28 melanoma
  TGI: 32.3 µM
SK-MEL-5 melanoma
  TGI: 38.9 µM
SK-OV-3 ovarian
  TGI: 35.4 µM
SN12C renal
  TGI: 34 µM
SNB-19 CNS
  TGI: 33.6 µM
SNB-75 CNS
  TGI: 31.5 µM
SR leukemia
  TGI: 23.6 µM
SW-620 colon
  TGI: 41.6 µM
T-47D breast
  TGI: > 100 µM
TK-10 renal
  TGI: 46.3 µM
U251 CNS
  TGI: 28.9 µM
UACC-257 melanoma
  TGI: 32 µM
UACC-62 melanoma
  TGI: 43.2 µM
UO-31 renal
  TGI: 54.5 µM
